From article PMC11207571, “Applicability of MDR1 Overexpressing Abcb1KO-MDCKII Cell Lines for Investigating In Vitro Species Differences and Brain Penetration Prediction” (Pharmaceutics, 2024)

Experiments:
human BCRP = target: T1, human BCRP (Homo sapiens, UniProt Q9UNQ0); test: Bidirectional transport assay, efflux ratio in MDCKII-BCRP cells; conditions: human, pH 7.4
T1 sequence (Q9UNQ0 1-655): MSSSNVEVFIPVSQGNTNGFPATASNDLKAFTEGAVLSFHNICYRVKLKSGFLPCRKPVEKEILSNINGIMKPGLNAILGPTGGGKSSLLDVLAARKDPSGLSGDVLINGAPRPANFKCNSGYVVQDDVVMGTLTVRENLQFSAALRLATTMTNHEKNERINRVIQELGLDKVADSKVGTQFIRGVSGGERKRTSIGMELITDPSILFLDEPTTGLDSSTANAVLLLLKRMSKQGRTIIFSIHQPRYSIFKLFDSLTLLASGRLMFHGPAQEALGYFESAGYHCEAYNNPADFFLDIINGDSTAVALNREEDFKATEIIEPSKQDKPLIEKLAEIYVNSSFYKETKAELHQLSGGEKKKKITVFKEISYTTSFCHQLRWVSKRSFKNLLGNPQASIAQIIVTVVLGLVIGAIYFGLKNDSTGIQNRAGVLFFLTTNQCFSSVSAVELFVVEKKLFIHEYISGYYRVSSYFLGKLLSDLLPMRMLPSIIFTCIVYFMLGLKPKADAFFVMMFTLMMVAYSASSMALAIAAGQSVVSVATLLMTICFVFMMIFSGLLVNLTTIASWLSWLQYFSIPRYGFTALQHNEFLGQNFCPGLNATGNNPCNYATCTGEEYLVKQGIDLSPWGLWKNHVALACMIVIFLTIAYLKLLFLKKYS
Protocol: (§1) Eluent A consisted of 0.1% formic acid in water, eluent B consisted of 0.1% formic acid in acetonitrile. Then, 10 µL samples were injected into the HPLC-MS/MS system. Mass spectrometric detection was performed in SRM mode, and ion transitions for each analyte were optimized during method development. Samples were analyzed in pools, with each pool containing three to four analytes.

mouse Mdr1a = mouse Mdr1a (Mus musculus, UniProt P21447); test: Bidirectional transport assay, efflux ratio in Abcb1KO-MDCKII mMDR1 cells; conditions: mouse, pH 7.4
Chain of mouse Mdr1a (P21447 whole entry): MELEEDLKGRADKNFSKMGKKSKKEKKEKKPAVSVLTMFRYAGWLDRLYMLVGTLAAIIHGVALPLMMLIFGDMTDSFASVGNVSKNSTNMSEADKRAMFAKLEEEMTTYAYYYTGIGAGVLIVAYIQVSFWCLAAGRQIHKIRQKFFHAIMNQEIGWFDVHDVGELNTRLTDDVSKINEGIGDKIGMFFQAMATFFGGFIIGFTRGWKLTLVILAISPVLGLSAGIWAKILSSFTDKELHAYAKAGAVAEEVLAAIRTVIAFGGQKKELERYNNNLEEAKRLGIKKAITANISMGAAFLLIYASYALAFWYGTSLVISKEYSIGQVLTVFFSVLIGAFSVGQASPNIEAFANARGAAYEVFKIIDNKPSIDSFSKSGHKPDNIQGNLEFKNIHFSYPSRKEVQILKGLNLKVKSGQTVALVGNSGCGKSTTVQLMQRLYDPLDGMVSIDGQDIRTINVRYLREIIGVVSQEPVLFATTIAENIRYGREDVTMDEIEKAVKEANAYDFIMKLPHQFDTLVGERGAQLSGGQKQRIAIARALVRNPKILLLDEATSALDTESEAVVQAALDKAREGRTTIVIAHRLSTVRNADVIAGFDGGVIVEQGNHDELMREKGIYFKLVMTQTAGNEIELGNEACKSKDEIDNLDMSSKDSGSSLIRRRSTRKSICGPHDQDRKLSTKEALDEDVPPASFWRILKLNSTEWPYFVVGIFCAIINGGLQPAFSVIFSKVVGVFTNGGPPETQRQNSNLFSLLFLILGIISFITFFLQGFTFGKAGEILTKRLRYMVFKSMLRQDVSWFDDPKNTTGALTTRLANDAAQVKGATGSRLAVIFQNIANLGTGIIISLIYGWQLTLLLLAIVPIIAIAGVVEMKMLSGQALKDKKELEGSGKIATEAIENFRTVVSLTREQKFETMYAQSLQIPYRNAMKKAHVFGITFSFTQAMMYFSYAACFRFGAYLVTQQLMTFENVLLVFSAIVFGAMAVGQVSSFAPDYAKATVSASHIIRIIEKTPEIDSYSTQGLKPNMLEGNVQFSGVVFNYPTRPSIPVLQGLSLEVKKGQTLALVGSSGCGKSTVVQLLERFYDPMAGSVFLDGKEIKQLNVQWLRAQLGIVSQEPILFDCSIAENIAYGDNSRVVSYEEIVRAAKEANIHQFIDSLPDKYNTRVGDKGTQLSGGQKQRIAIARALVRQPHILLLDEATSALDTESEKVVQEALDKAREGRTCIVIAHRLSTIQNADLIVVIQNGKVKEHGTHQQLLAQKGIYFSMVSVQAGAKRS
Protocol: as §1

[1] = Bidirectional transport assay, efflux ratio in Abcb1KO-MDCKII-Mock control cells; conditions: dog, MDCK, pH 7.4
Protocol: as §1

rat Mdr1a = rat Mdr1a (Rattus norvegicus, UniProt Q6PSM0); test: Bidirectional transport assay, efflux ratio in Abcb1KO-MDCKII rMDR1 cells; conditions: rat, pH 7.4
Chain of rat Mdr1a (Q6PSM0 1-1272): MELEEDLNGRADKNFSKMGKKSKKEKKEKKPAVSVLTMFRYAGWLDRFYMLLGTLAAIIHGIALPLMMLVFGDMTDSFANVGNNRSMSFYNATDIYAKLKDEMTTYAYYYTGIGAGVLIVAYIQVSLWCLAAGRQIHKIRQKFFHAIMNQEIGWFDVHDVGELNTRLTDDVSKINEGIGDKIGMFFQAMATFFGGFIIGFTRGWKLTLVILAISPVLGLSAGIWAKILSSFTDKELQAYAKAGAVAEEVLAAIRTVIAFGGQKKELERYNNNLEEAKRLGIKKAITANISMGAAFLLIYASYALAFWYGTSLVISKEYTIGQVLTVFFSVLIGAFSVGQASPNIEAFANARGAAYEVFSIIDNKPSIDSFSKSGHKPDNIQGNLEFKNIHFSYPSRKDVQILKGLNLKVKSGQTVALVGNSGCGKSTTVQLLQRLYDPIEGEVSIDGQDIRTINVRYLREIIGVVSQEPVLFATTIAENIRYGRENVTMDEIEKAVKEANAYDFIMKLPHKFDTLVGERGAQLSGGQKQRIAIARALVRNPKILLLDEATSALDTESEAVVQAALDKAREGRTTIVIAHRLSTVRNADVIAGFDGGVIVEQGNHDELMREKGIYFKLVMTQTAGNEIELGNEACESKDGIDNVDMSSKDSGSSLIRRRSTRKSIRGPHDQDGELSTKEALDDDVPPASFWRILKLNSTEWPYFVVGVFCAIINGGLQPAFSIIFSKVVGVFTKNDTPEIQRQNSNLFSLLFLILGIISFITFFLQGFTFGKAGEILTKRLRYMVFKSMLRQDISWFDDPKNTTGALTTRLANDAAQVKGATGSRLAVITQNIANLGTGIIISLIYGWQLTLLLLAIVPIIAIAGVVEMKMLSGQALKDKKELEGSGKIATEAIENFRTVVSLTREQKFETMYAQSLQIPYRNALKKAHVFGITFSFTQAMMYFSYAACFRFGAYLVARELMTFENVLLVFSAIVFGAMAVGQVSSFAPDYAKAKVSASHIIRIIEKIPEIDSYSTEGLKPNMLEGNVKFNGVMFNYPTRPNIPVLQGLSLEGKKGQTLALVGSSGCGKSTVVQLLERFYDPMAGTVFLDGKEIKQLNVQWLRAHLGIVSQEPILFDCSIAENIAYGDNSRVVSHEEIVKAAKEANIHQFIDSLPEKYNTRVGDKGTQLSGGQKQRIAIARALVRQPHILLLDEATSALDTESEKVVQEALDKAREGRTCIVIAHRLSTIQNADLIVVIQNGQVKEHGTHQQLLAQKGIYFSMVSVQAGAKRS
Protocol: as §1

human MDR1 = human MDR1 (Homo sapiens, UniProt P08183); test: Bidirectional transport assay, efflux ratio in Abcb1KO-MDCKII hMDR1 cells; conditions: human, MDCK-MDR1, pH 7.4
Chain of human MDR1 (P08183 whole entry): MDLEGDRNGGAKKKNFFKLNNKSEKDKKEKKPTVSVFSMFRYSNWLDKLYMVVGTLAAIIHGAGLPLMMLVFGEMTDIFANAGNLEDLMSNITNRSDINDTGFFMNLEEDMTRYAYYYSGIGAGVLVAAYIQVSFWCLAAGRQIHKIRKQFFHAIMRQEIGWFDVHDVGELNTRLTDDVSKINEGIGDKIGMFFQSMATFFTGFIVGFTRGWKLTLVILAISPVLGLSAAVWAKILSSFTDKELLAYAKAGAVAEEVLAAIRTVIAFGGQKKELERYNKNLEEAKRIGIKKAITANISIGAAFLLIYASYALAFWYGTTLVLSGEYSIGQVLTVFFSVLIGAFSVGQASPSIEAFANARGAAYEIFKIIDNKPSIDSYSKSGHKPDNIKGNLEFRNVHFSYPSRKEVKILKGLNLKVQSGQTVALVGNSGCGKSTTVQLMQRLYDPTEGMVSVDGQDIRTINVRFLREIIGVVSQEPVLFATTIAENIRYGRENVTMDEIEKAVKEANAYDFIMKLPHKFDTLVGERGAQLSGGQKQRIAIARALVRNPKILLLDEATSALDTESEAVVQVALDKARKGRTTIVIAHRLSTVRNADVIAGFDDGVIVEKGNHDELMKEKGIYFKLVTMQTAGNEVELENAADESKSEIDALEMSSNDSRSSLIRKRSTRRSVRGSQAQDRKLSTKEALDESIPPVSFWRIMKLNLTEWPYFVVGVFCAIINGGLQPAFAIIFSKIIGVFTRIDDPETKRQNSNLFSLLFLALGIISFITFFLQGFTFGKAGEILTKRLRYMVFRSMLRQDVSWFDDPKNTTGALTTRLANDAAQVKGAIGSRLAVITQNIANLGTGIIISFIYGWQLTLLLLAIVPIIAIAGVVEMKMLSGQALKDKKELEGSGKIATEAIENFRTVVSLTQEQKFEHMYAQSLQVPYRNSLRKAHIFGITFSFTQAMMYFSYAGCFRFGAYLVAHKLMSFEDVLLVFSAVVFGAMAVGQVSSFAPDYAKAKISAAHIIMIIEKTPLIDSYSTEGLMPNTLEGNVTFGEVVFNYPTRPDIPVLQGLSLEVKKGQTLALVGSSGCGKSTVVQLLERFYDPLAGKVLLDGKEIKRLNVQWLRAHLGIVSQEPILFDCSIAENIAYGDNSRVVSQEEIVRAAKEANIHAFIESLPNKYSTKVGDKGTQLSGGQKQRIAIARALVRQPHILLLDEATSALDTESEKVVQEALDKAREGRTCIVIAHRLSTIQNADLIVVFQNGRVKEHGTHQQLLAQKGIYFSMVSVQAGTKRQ
Protocol: as §1

cynomolgus monkey Mdr1 = cynomolgus monkey Mdr1 (Macaca fascicularis, UniProt Q8HZQ6); test: Bidirectional transport assay, efflux ratio in Abcb1KO-MDCKII cyMDR1 cells; conditions: cynomolgus monkey, pH 7.4
Chain of cynomolgus monkey Mdr1 (Q8HZQ6 1-1283): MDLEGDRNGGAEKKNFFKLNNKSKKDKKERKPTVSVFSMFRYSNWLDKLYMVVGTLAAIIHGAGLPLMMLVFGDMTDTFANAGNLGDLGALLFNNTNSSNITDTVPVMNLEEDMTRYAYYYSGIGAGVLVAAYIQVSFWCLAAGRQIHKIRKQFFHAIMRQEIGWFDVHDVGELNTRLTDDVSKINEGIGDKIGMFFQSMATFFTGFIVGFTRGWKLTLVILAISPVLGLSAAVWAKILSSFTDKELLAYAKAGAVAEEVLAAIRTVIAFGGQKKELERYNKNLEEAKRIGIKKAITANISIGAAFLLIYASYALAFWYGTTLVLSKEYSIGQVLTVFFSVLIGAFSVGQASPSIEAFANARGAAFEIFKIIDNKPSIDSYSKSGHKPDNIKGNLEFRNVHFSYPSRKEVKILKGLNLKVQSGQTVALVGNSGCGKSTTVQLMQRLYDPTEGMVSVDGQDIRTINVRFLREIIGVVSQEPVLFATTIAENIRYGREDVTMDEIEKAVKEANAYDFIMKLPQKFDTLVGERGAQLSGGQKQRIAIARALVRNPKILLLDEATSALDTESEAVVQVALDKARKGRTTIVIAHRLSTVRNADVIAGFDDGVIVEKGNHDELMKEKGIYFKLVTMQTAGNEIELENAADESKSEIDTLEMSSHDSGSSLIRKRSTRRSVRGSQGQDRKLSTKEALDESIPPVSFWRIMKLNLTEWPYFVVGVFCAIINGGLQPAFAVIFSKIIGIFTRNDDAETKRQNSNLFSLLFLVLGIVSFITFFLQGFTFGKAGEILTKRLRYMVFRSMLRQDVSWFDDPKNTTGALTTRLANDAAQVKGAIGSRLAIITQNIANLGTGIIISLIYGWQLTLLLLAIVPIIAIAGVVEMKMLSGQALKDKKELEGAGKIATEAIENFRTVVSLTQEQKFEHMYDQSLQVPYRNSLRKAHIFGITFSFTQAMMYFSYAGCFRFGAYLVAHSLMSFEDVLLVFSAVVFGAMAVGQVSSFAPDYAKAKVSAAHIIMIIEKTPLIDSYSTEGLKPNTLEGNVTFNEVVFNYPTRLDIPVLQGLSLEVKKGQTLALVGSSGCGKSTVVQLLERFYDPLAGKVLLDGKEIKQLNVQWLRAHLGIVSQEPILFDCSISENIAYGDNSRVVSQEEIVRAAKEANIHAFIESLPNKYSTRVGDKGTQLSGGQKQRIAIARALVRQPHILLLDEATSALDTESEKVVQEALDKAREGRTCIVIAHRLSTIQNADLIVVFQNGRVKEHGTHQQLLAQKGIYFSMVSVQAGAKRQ
Protocol: as §1

| SMILES | efflux ratio at 120 min, 1 µM (human BCRP) | efflux ratio at 120 min, 1 µM (mouse Mdr1a) | efflux ratio at 120 min, 1 µM [1] | efflux ratio at 120 min, 1 µM (rat Mdr1a) | efflux ratio at 120 min, 1 µM (human MDR1) | efflux ratio at 120 min, 1 µM (cynomolgus monkey Mdr1) |
| --- | --- | --- | --- | --- | --- | --- |
| CC[C@]1(O)C[C@@H]2CN(CCc3c([nH]c4ccccc34)[C@@](C(=O)OC)(c3cc4c(cc3OC)N(C)[C@H]3[C@@](O)(C(=O)OC)[C@H](OC(C)=O)[C@]5(CC)C=CCN6CC[C@]43[C@@H]65)C2)C1 [Vinblastine] | 22.9 ± 4.47 | 50.5 ± 6.89 | 1.32 ± 0.28 | 61.2 ± 5.31 | 51.6 ± 5.3 | 61.4 ± 7.47 |
| COc1ccc(CCN2CCC(Nc3nc4ccccc4n3Cc3ccc(F)cc3)CC2)cc1 [Astemizole] | 13.6 ± 2.46 | 4.52 ± 0.85 | 1.43 ± 0.24 | 3.27 ± 0.73 | 12.2 ± 1.29 | 10.6 ± 1.49 |
| CC(C)NCC(O)COc1cccc2ccccc12 (stereo not drawn) [Propranolol] | 0.71 ± 0.15 | 0.92 ± 0.1 | 0.54 ± 0.06 | 0.73 ± 0.08 | 0.88 ± 0.08 | 0.66 ± 0.06 |
| O=C1c2c(O)ccc(O)c2C(=O)c2c(NCCNCCO)ccc(NCCNCCO)c21 [Mitoxantrone] | 55.6 ± 10.8 | 28.6 ± 4.05 | 1.15 ± 0.14 | 17.6 ± 1.56 | 5.66 ± 0.54 | 40.3 ± 2.47 |
| CN(C)CCC(c1ccccc1)c1ccccn1 (stereo not drawn) [Pheniramine] | 1.02 ± 0.03 | 1.1 ± 0.1 | 0.78 ± 0.04 | 1.09 ± 0.03 | 1.45 ± 0.05 | 0.99 ± 0.02 |
| NC(=O)N1c2ccccc2C=Cc2ccccc21 [Carbamazepine] | 0.86 ± 0.12 | 0.79 ± 0.07 | 0.61 ± 0.06 | 0.86 ± 0.08 | 0.62 ± 0.06 | 0.75 ± 0.07 |
| O=c1n(CCCN2CCN(c3cccc(Cl)c3)CC2)nc2ccccn12 [Trazodone] | 0.86 ± 0.11 | 0.98 ± 0.24 | 2.66 ± 0.59 | 1.4 ± 0.16 | 1.71 ± 0.34 | 1.5 ± 0.1 |
| Cc1ncc2n1-c1ccc(Cl)cc1C(c1ccccc1F)=NC2 [Midazolam] | 0.57 ± 0.06 | 0.4 ± 0.06 | 0.43 ± 0.04 | 0.28 ± 0.06 | 0.53 ± 0.03 | 0.43 ± 0.05 |
| Cc1nc2n(c(=O)c1CCN1CCC(c3noc4cc(F)ccc34)CC1)CCCC2O (stereo not drawn) [Paliperidone] | 5.82 ± 1.79 | 8.26 ± 0.88 | 0.79 ± 0.1 | 6.06 ± 1.45 | 19.8 ± 2.06 | 2.47 ± 0.41 |
| CCN(CC)CCNC(=O)c1cc(Cl)c(N)cc1OC [Metoclopramide] | 2.42 ± 0.33 | 2.55 ± 0.21 | 0.85 ± 0.07 | 3.02 ± 0.28 | 5.55 ± 0.43 | 1.44 ± 0.14 |
| COCCc1ccc(OCC(O)CNC(C)C)cc1 (stereo not drawn) [Metoprolol] | 0.71 ± 0.11 | 0.92 ± 0.08 | 0.74 ± 0.05 | 0.97 ± 0.11 | 1.53 ± 0.15 | 0.74 ± 0.05 |
| CN(C)CCc1c[nH]c2ccc(C[C@H]3COC(=O)N3)cc12 [Zolmitriptan] | 3.94 ± 0.25 | 1.99 ± 0.16 | 0.97 ± 0.09 | 2.69 ± 0.16 | 4.3 ± 0.26 | 2.24 ± 0.22 |
| O=C(CCCN1CCC(O)(c2ccc(Cl)cc2)CC1)c1ccc(F)cc1 [Haloperidol] | 0.72 ± 0.1 | 0.72 ± 0.11 | 0.74 ± 0.1 | 0.85 ± 0.15 | 0.89 ± 0.22 | 0.8 ± 0.22 |
